Tested on: Acinetobacter baumannii strains
Assay: Antibiotic susceptibility test (CLSI disk diffusion test method, read per CLSI 2016)
Type: cell-based
Parameters: antibiotic susceptibility test value / susceptibility test value (number given before S/I/R) / antibiotic susceptibility value: unit not given here
Experimental: (§1) Strain identification was performed using a kit such as AT 32 GN system (bioMérieux, Marcy l'Etoile, France). […] In Table 2 below, S, I, and R are the results obtained by evaluating susceptibility to the antibacterial agents, in which ‘S’ means susceptible, ‘I’ means intermediate, and ‘R’ means resistant.
as §1, with “as ATB” for “as AT”, “system (bioMédrieux,” for “system (bioMérieux,”, “Table 6” for “Table 2”
as §1, with “as ATB” for “as AT”, “Table 10” for “Table 2”, “susceptible, T” for “susceptible, ‘I’”

cortrimoxazole
antibiotic susceptibility value (host strain YMC16/01/R353): 160
susceptibility category (S/I/R) (host strain YMC16/01/R353): R
susceptibility test value (number given before S/I/R) (host strain YMC16/01/R353): 160
antibiotic susceptibility S/I/R (host strain YMC16/01/R380): S
antibiotic susceptibility value (host strain YMC16/01/R380): 20
susceptibility category (S/I/R) (host strain YMC16/01/R380): S
susceptibility test value (number given before S/I/R) (host strain YMC16/01/R380): 20
antibiotic susceptibility S/I/R (host strain YMC16/01/R397): R
antibiotic susceptibility value (host strain YMC16/01/R397): 160
susceptibility category (S/I/R) (host strain YMC16/01/R397): R
susceptibility test value (number given before S/I/R) (host strain YMC16/01/R397): 160
antibiotic susceptibility S/I/R (host strain YMC16/01/R405): R
antibiotic susceptibility value (host strain YMC16/01/R405): 320
susceptibility category (S/I/R) (host strain YMC16/01/R405): R
susceptibility test value (number given before S/I/R) (host strain YMC16/01/R405): 320
antibiotic susceptibility S/I/R (host strain YMC16/03/R4461): R
antibiotic susceptibility value (host strain YMC16/03/R4461): 320
susceptibility category (S/I/R) (host strain YMC16/03/R4461): R
susceptibility test value (number given before S/I/R) (host strain YMC16/03/R4461): 320
antibiotic susceptibility S/I/R (host strain YMC16/05/R2210): R
antibiotic susceptibility value (host strain YMC16/05/R2210): 320
susceptibility category (S/I/R) (host strain YMC16/05/R2210): R
susceptibility test value (number given before S/I/R) (host strain YMC16/05/R2210): 320
antibiotic susceptibility S/I/R (host strain YMC16/07/R2512): R
antibiotic susceptibility value (host strain YMC16/07/R2512): 320
susceptibility category (S/I/R) (host strain YMC16/07/R2512): R
susceptibility test value (number given before S/I/R) (host strain YMC16/07/R2512): 320
antibiotic susceptibility S/I/R (host strain YMC16/09/R2471): R
antibiotic susceptibility value (host strain YMC16/09/R2471): 160
susceptibility category (S/I/R) (host strain YMC16/09/R2471): R
susceptibility test value (number given before S/I/R) (host strain YMC16/09/R2471): 160
antibiotic susceptibility S/I/R (host strain YMC16/10/R2537): R
antibiotic susceptibility value (host strain YMC16/10/R2537): 160
susceptibility category (S/I/R) (host strain YMC16/10/R2537): R
susceptibility test value (number given before S/I/R) (host strain YMC16/10/R2537): 160
antibiotic susceptibility S/I/R (host strain YMC16/12/B11422): R
antibiotic susceptibility value (host strain YMC16/12/B11422): 160
susceptibility category (S/I/R) (host strain YMC16/12/B11422): R
susceptibility test value (number given before S/I/R) (host strain YMC16/12/B11422): 160
antibiotic susceptibility S/I/R (host strain YMC16/12/B11449): R
antibiotic susceptibility value (host strain YMC16/12/B11449): 320
susceptibility category (S/I/R) (host strain YMC16/12/B11449): R
susceptibility test value (number given before S/I/R) (host strain YMC16/12/B11449): 320
antibiotic susceptibility S/I/R (host strain YMC16/12/B13325): R
antibiotic susceptibility value (host strain YMC16/12/B13325): 320
susceptibility category (S/I/R) (host strain YMC16/12/B13325): R
susceptibility test value (number given before S/I/R) (host strain YMC16/12/B13325): 320
antibiotic susceptibility S/I/R (host strain YMC16/12/P503): R
antibiotic susceptibility value (host strain YMC16/12/P503): 320
susceptibility category (S/I/R) (host strain YMC16/12/P503): R
susceptibility test value (number given before S/I/R) (host strain YMC16/12/P503): 320
antibiotic susceptibility S/I/R (host strain YMC16/12/R4637): R
antibiotic susceptibility value (host strain YMC16/12/R4637): 320
susceptibility category (S/I/R) (host strain YMC16/12/R4637): R
susceptibility test value (number given before S/I/R) (host strain YMC16/12/R4637): 320
antibiotic susceptibility S/I/R (host strain YMC17/01/B8053): R
antibiotic susceptibility value (host strain YMC17/01/B8053): 320
susceptibility category (S/I/R) (host strain YMC17/01/B8053): R
susceptibility test value (number given before S/I/R) (host strain YMC17/01/B8053): 320
antibiotic susceptibility S/I/R (host strain YMC17/01/B10087): R
antibiotic susceptibility value (host strain YMC17/01/B10087): 160
susceptibility category (S/I/R) (host strain YMC17/01/B10087): R
susceptibility test value (number given before S/I/R) (host strain YMC17/01/B10087): 160
antibiotic susceptibility S/I/R (host strain YMC17/01/B12075): S
antibiotic susceptibility value (host strain YMC17/01/B12075): 20
susceptibility category (S/I/R) (host strain YMC17/01/B12075): S
susceptibility test value (number given before S/I/R) (host strain YMC17/01/B12075): 20
antibiotic susceptibility S/I/R (host strain YMC17/01/B13454): R
antibiotic susceptibility value (host strain YMC17/01/B13454): 160
susceptibility category (S/I/R) (host strain YMC17/01/B13454): R
susceptibility test value (number given before S/I/R) (host strain YMC17/01/B13454): 160
antibiotic susceptibility S/I/R (host strain YMC17/01/P518): R
antibiotic susceptibility value (host strain YMC17/01/P518): 160
susceptibility category (S/I/R) (host strain YMC17/01/P518): R
susceptibility test value (number given before S/I/R) (host strain YMC17/01/P518): 160
antibiotic susceptibility S/I/R (host strain YMC17/01/R2812): R
antibiotic susceptibility value (host strain YMC17/01/R2812): 320
susceptibility category (S/I/R) (host strain YMC17/01/R2812): R
susceptibility test value (number given before S/I/R) (host strain YMC17/01/R2812): 320
antibiotic susceptibility S/I/R (host strain YMC17/02/B14): R
antibiotic susceptibility value (host strain YMC17/02/B14): 320
susceptibility category (S/I/R) (host strain YMC17/02/B14): R
susceptibility test value (number given before S/I/R) (host strain YMC17/02/B14): 320
antibiotic susceptibility S/I/R (host strain YMC17/02/B87): R
antibiotic susceptibility value (host strain YMC17/02/B87): 320
susceptibility category (S/I/R) (host strain YMC17/02/B87): R
susceptibility test value (number given before S/I/R) (host strain YMC17/02/B87): 320
antibiotic susceptibility S/I/R (host strain YMC17/02/B721): R
antibiotic susceptibility value (host strain YMC17/02/B721): 320
susceptibility category (S/I/R) (host strain YMC17/02/B721): R
susceptibility test value (number given before S/I/R) (host strain YMC17/02/B721): 320
antibiotic susceptibility S/I/R (host strain YMC17/02/B4039): R
antibiotic susceptibility value (host strain YMC17/02/B4039): 80
susceptibility category (S/I/R) (host strain YMC17/02/B4039): R
susceptibility test value (number given before S/I/R) (host strain YMC17/02/B4039): 80
antibiotic susceptibility S/I/R (host strain YMC17/02/B4520): R
antibiotic susceptibility value (host strain YMC17/02/B4520): 160
susceptibility category (S/I/R) (host strain YMC17/02/B4520): R
susceptibility test value (number given before S/I/R) (host strain YMC17/02/B4520): 160
antibiotic susceptibility S/I/R (host strain YMC17/02/B4864): S
antibiotic susceptibility value (host strain YMC17/02/B4864): 20
susceptibility category (S/I/R) (host strain YMC17/02/B4864): S
susceptibility test value (number given before S/I/R) (host strain YMC17/02/B4864): 20
antibiotic susceptibility S/I/R (host strain YMC17/02/B8414): R
antibiotic susceptibility value (host strain YMC17/02/B8414): 320
susceptibility category (S/I/R) (host strain YMC17/02/B8414): R
susceptibility test value (number given before S/I/R) (host strain YMC17/02/B8414): 320
antibiotic susceptibility S/I/R (host strain YMC17/02/P523): S
antibiotic susceptibility value (host strain YMC17/02/P523): 20
susceptibility category (S/I/R) (host strain YMC17/02/P523): S
susceptibility test value (number given before S/I/R) (host strain YMC17/02/P523): 20
antibiotic susceptibility S/I/R (host strain YMC17/02/R541): R
antibiotic susceptibility value (host strain YMC17/02/R541): 320
susceptibility category (S/I/R) (host strain YMC17/02/R541): R
susceptibility test value (number given before S/I/R) (host strain YMC17/02/R541): 320
antibiotic susceptibility S/I/R (host strain YMC17/02/R2392): R
antibiotic susceptibility value (host strain YMC17/02/R2392): 320
susceptibility category (S/I/R) (host strain YMC17/02/R2392): R
susceptibility test value (number given before S/I/R) (host strain YMC17/02/R2392): 320
antibiotic susceptibility S/I/R (host strain YMC17/03/B4730): R
antibiotic susceptibility value (host strain YMC17/03/B4730): 320
susceptibility category (S/I/R) (host strain YMC17/03/B4730): R
susceptibility test value (number given before S/I/R) (host strain YMC17/03/B4730): 320
antibiotic susceptibility S/I/R (host strain YMC17/03/B5000): R
antibiotic susceptibility value (host strain YMC17/03/B5000): 320
susceptibility category (S/I/R) (host strain YMC17/03/B5000): R
susceptibility test value (number given before S/I/R) (host strain YMC17/03/B5000): 320
antibiotic susceptibility S/I/R (host strain YMC17/03/P971): R
antibiotic susceptibility value (host strain YMC17/03/P971): 320
susceptibility category (S/I/R) (host strain YMC17/03/P971): R
susceptibility test value (number given before S/I/R) (host strain YMC17/03/P971): 320
antibiotic susceptibility S/I/R (host strain YMC17/03/R348): R
antibiotic susceptibility value (host strain YMC17/03/R348): 320
susceptibility category (S/I/R) (host strain YMC17/03/R348): R
susceptibility test value (number given before S/I/R) (host strain YMC17/03/R348): 320
antibiotic susceptibility S/I/R (host strain YMC17/03/R585): R
antibiotic susceptibility value (host strain YMC17/03/R585): 320
susceptibility category (S/I/R) (host strain YMC17/03/R585): R
susceptibility test value (number given before S/I/R) (host strain YMC17/03/R585): 320
antibiotic susceptibility S/I/R (host strain YMC17/03/R1888): R
antibiotic susceptibility value (host strain YMC17/03/R1888): 320
susceptibility category (S/I/R) (host strain YMC17/03/R1888): R
susceptibility test value (number given before S/I/R) (host strain YMC17/03/R1888): 320
antibiotic susceptibility S/I/R (host strain YMC17/03/R3279): R
antibiotic susceptibility value (host strain YMC17/03/R3279): 320
susceptibility category (S/I/R) (host strain YMC17/03/R3279): R
susceptibility test value (number given before S/I/R) (host strain YMC17/03/R3279): 320
antibiotic susceptibility S/I/R (host strain YMC17/03/R4077): R
antibiotic susceptibility value (host strain YMC17/03/R4077): 320
susceptibility category (S/I/R) (host strain YMC17/03/R4077): R
susceptibility test value (number given before S/I/R) (host strain YMC17/03/R4077): 320
antibiotic susceptibility S/I/R (host strain YMC17/03/R4607): R
antibiotic susceptibility value (host strain YMC17/03/R4607): 320
susceptibility category (S/I/R) (host strain YMC17/03/R4607): R
susceptibility test value (number given before S/I/R) (host strain YMC17/03/R4607): 320
antibiotic susceptibility S/I/R (host strain YMC17/04/R488): R
antibiotic susceptibility value (host strain YMC17/04/R488): 160
susceptibility category (S/I/R) (host strain YMC17/04/R488): R
susceptibility test value (number given before S/I/R) (host strain YMC17/04/R488): 160
antibiotic susceptibility S/I/R (host strain YMC17/04/R640): R
antibiotic susceptibility value (host strain YMC17/04/R640): 320
susceptibility category (S/I/R) (host strain YMC17/04/R640): R
susceptibility test value (number given before S/I/R) (host strain YMC17/04/R640): 320
antibiotic susceptibility S/I/R (host strain YMC/17/05/R1095): R
antibiotic susceptibility value (host strain YMC/17/05/R1095): 320
susceptibility category (S/I/R) (host strain YMC/17/05/R1095): R
susceptibility test value (number given before S/I/R) (host strain YMC/17/05/R1095): 320

Reference: patent US20240000872A1, “NOVEL BACTERIOPHAGE THAT LYSES ACINETOBACTER GENUS BACTERIA HAVING RESISTANCE TO ANTIBIOTICS” (priority 2020, published 2024)
